Measurements as given in the NIST ThermoML archive (doi:10.1021/je900732r).
Several values for one entry are separate records, joined by “and”; a condition that tells them apart may be missing. Identical values can stand only once.

Assays:
[1] = Liquid; for mass density: 101 kPa
[2] = mn = molality of the nth substance listed, in mol/kg; details: 101 kPa, Liquid; for speed of sound: Pulse-echo method

C[S+](C)[O-] [dimethyl sulfoxide]
[1]
Details | mass density
293.15 K | 1100.22 kg/m3 and 1100.23 kg/m3
298.15 K | 1095.19 kg/m3 and 1095.2 kg/m3
303.15 K | 1090.17 kg/m3 and 1090.18 kg/m3
313.15 K | 1080.12 kg/m3 and 1080.12 kg/m3
323.15 K | 1070.08 kg/m3 and 1070.08 kg/m3
333.15 K | 1060.04 kg/m3 and 1060.03 kg/m3

CO [methanol]
[1]
Details | mass density
283.15 K | 800.55 kg/m3 and 800.541 kg/m3 and 800.548 kg/m3
288.15 K | 795.872 kg/m3 and 795.866 kg/m3 and 795.857 kg/m3
293.15 K | 791.172 kg/m3 and 791.169 kg/m3 and 791.162 kg/m3
298.15 K | 786.46 kg/m3 and 786.452 kg/m3 and 786.464 kg/m3
303.15 K | 781.742 kg/m3 and 781.733 kg/m3 and 781.722 kg/m3
308.15 K | 776.992 kg/m3 and 776.979 kg/m3 and 776.978 kg/m3
313.15 K | 772.214 kg/m3 and 772.189 kg/m3 and 772.2 kg/m3

Details | speed of sound [m/s]
[1], 298.15 K, 101.33 kPa, Pulse-echo method | 1101.2

O=S(=O)([O-])C(F)(F)F.O=S(=O)([O-])C(F)(F)F.[Cu+2] [copper(II) trifluoromethanesulfonate] + CO
[2]
Details | mass density, 283.15 K [kg/m3] | mass density, 288.15 K [kg/m3] | mass density, 293.15 K [kg/m3] | mass density, 298.15 K [kg/m3] | mass density, 303.15 K [kg/m3] | mass density, 308.15 K [kg/m3] | mass density, 313.15 K [kg/m3] | speed of sound, 298.15 K [m/s]
m1 = 0.1213 | 829.484 | 824.791 | 820.094 | 815.38 | 810.649 | 805.885 | 801.107 | 1106
m1 = 0.1418 | 834.535 | 829.841 | 825.141 | 820.428 | 815.692 | 810.942 | 806.159 | 1106.6
m1 = 0.1772 | 843.312 | 838.612 | 833.908 | 829.19 | 824.45 | 819.682 | 814.901 | 1107.4
m1 = 0.2047 | 850.214 | 845.512 | 840.803 | 836.081 | 831.338 | 826.565 | 821.777 | 1108.2
m1 = 0.231 | 856.972 | 852.265 | 847.554 | 842.828 | 838.081 | 833.302 | 828.513 | 1109.1
m1 = 0.2571 | 863.707 | 858.996 | 854.279 | 849.545 | 844.805 | 840.033 | 835.231 | 1109.7
m1 = 0.2847 | 871.006 | 866.292 | 861.57 | 856.839 | 852.088 | 847.311 | 842.504 | 1110.5

[Cu+2].[O-][Cl+3]([O-])([O-])[O-].[O-][Cl+3]([O-])([O-])[O-] [copper perchlorate] + C[S+](C)[O-]
mass density [kg/m3], [2]
Details | 293.15 K | 298.15 K | 303.15 K | 313.15 K | 323.15 K | 333.15 K
m1 = 0.01424 | 1103.32 | 1098.31 | 1093.29 | 1083.26 | 1073.23 | 1063.21
m1 = 0.01956 | 1104.48 | 1099.47 | 1094.46 | 1084.44 | 1074.42 | 1064.4
m1 = 0.02779 | 1106.27 | 1101.26 | 1096.26 | 1086.25 | 1076.24 | 1066.24
m1 = 0.03497 | 1107.84 | 1102.83 | 1097.83 | 1087.83 | 1077.83 | 1067.84
m1 = 0.0419 | 1109.35 | 1104.35 | 1099.36 | 1089.37 | 1079.36 | 1069.38
m1 = 0.05636 | 1112.53 | 1107.54 | 1102.54 | 1092.57 | 1082.6 | 1072.64
m1 = 0.07067 | 1115.69 | 1110.7 | 1105.71 | 1095.76 | 1085.8 | 1075.85
m1 = 0.08366 | 1118.57 | 1113.58 | 1108.61 | 1098.65 | 1088.72 | 1078.79
m1 = 0.09783 | 1121.71 | 1116.73 | 1111.75 | 1101.83 | 1091.91 | 1082
m1 = 0.1114 | 1124.76 | 1119.78 | 1114.82 | 1104.9 | 1095 | 1085.1
m1 = 0.1251 | 1127.83 | 1122.85 | 1117.89 | 1108 | 1098.11 | 1088.23
m1 = 0.1384 | 1130.82 | 1125.85 | 1120.9 | 1111.02 | 1101.14 | 1091.28
